Measured values reported in ChEMBL document CHEMBL3045150, “Synthesis and structureactivity relationship studies on novel 8-amino-3-[2-(4-fluorophenoxy)ethyl]-1,3-diazaspiro[4.5]decane-2,4-dione derivatives as anticonvulsant agents” (Med Chem Res, 2013).

How the values were obtained:
[1] = system: Mus musculus; assay: Anticonvulsant activity in albino Mus musculus (mouse) assessed as protection against maximal electric shock-induced seizures at 100 mg/kg, ip administered 30 min prior to maximal electric shock-challenge measured up to 4 hr relative to control; format: functional; settings: route intraperitoneal
[2] = system: Mus musculus; assay: Neurotoxicity in albino Mus musculus (mouse) assessed as motor impairment at 100 mg/kg, po measured at 2 hr by rotarod test; format: toxicity, organism-based; set-up: dose 100 mg/kg, route oral; settings: in vivo
[3] = system: Mus musculus; assay: Neurotoxicity in albino Mus musculus (mouse) assessed as motor impairment at 100 mg/kg, po measured at 4 hr by rotarod test; format: toxicity, organism-based; set-up: dose 100 mg/kg, route oral; settings: in vivo

For `O=C(NC1CCC2(CC1)NC(=O)N(CCOc1ccc(F)cc1)C2=O)Oc1ccccc1` (stereo not given), which Activity [1] is on record?
Its Activity is 56.89%.

What about the Activity [2] of the same molecule?
Its Activity is “Non-toxic”.

And the Activity [3]?
The Activity was “Non-toxic”.

How did the Activity [1] turn out when `Cc1cc(C)cc(S(=O)(=O)NC2CCC3(CC2)NC(=O)N(CCOc2ccc(F)cc2)C3=O)c1` (stereo not given) was run?
The Activity was 43.12%.

And the Activity [2]?
Its Activity is “Non-toxic”.

What about the Activity [3] of the same molecule?
The Activity was “Non-toxic”.

How did the Activity [1] turn out when `O=C(NC1CCC2(CC1)NC(=O)N(CCOc1ccc(F)cc1)C2=O)c1ccccc1Cl` (stereo not given) was run?
Its Activity is 49.41%.

And the Activity [2]?
The Activity was “Non-toxic”.

And the Activity [3]?
The Activity was “Non-toxic”.

Which results are given for `Cc1ccccc1S(=O)(=O)NC1CCC2(CC1)NC(=O)N(CCOc1ccc(F)cc1)C2=O` (stereo not given)?
Activity [1]: 13%; Activity [2]: Non-toxic; Activity [3]: Non-toxic

With `O=C1NC2(CCC(NS(=O)(=O)c3cccc(F)c3)CC2)C(=O)N1CCOc1ccc(F)cc1` (stereo not given) as the molecule, how does the Activity [1] read?
The Activity was 6.5%.

And the Activity [2]?
The Activity was “Non-toxic”.

And the Activity [3]?
The Activity was “Non-toxic”.

Which results are given for `O=C1NC2(CCC(NS(=O)(=O)c3cccc(Br)c3)CC2)C(=O)N1CCOc1ccc(F)cc1` (stereo not given)?
Activity [1]: 7.41%; Activity [2]: Non-toxic; Activity [3]: Non-toxic

For `Cc1cccc(C(=O)NC2CCC3(CC2)NC(=O)N(CCOc2ccc(F)cc2)C3=O)c1` (stereo not given), which Activity [1] is on record?
The Activity was 78.62%.

What about the Activity [2] of the same molecule?
Its Activity is “Non-toxic”.

And the Activity [3]?
Its Activity is “Non-toxic”.

What does the source list for `Cc1cccc(S(=O)(=O)NC2CCC3(CC2)NC(=O)N(CCOc2ccc(F)cc2)C3=O)c1` (stereo not given)?
Activity [1]: 4.55%; Activity [2]: Non-toxic; Activity [3]: Non-toxic

Which Activity [1] does the source give for `O=C(Cc1ccccc1)NC1CCC2(CC1)NC(=O)N(CCOc1ccc(F)cc1)C2=O` (stereo not given) here?
The Activity was 47.21%.

What about the Activity [2] of the same molecule?
The Activity was “Non-toxic”.

And the Activity [3]?
Its Activity is “Non-toxic”.

With `Cc1ccc(S(=O)(=O)NC2CCC3(CC2)NC(=O)N(CCOc2ccc(F)cc2)C3=O)cc1C` (stereo not given) as the molecule, how does the Activity [1] read?
Its Activity is 42.61%.

And the Activity [2]?
The Activity was “Non-toxic”.

What about the Activity [3] of the same molecule?
The Activity was “Non-toxic”.

With `Cc1ccc(C(=O)NC2CCC3(CC2)NC(=O)N(CCOc2ccc(F)cc2)C3=O)cc1` (stereo not given) as the molecule, how does the Activity [1] read?
Its Activity is 79.58%.

What about the Activity [2] of the same molecule?
Its Activity is “Non-toxic”.

What about the Activity [3] of the same molecule?
Its Activity is “Non-toxic”.

`O=C(NC1CCC2(CC1)NC(=O)N(CCOc1ccc(F)cc1)C2=O)c1ccc(F)cc1` (stereo not given) was tested. Which Activity [1] did it give?
The Activity was 57.94%.

And the Activity [2]?
The Activity was “Toxic”.

And the Activity [3]?
Its Activity is “Toxic”.

Which Activity [1] does the source give for `O=C(NC1CCC2(CC1)NC(=O)N(CCOc1ccc(F)cc1)C2=O)c1ccc(Cl)cc1` (stereo not given) here?
Its Activity is 49.83%.

What about the Activity [2] of the same molecule?
Its Activity is “Toxic”.

And the Activity [3]?
Its Activity is “Toxic”.

What does the source list for `Cc1cc(F)ccc1S(=O)(=O)NC1CCC2(CC1)NC(=O)N(CCOc1ccc(F)cc1)C2=O` (stereo not given)?
Activity [1]: 3.25%; Activity [2]: Non-toxic; Activity [3]: Non-toxic

For `O=C(NC1CCC2(CC1)NC(=O)N(CCOc1ccc(F)cc1)C2=O)c1cccc(Cl)c1` (stereo not given), which Activity [1] is on record?
Its Activity is 58.61%.

And the Activity [2]?
The Activity was “Toxic”.

And the Activity [3]?
The Activity was “Toxic”.

With `Cc1ccc(C)c(S(=O)(=O)NC2CCC3(CC2)NC(=O)N(CCOc2ccc(F)cc2)C3=O)c1` (stereo not given) as the molecule, how does the Activity [1] read?
Its Activity is 43.95%.

What about the Activity [2] of the same molecule?
Its Activity is “Non-toxic”.

What about the Activity [3] of the same molecule?
The Activity was “Non-toxic”.

For `O=C1NC2(CCC(NS(=O)(=O)c3cccc(Cl)c3)CC2)C(=O)N1CCOc1ccc(F)cc1` (stereo not given), which Activity [1] is on record?
Its Activity is 4.55%.

And the Activity [2]?
The Activity was “Toxic”.

And the Activity [3]?
The Activity was “Toxic”.

What does the source list for `O=C(NC1CCC2(CC1)NC(=O)N(CCOc1ccc(F)cc1)C2=O)OCc1ccccc1Cl` (stereo not given)?
Activity [1]: 48.82%; Activity [2]: Non-toxic; Activity [3]: Non-toxic

`CCc1ccc(S(=O)(=O)NC2CCC3(CC2)NC(=O)N(CCOc2ccc(F)cc2)C3=O)cc1` (stereo not given) was tested. Which Activity [1] did it give?
The Activity was 1.23%.

And the Activity [2]?
The Activity was “Non-toxic”.

What about the Activity [3] of the same molecule?
The Activity was “Non-toxic”.

For `O=C(NC1CCC2(CC1)NC(=O)N(CCOc1ccc(F)cc1)C2=O)c1ccccc1F` (stereo not given), which Activity [1] is on record?
Its Activity is 48.12%.

What about the Activity [2] of the same molecule?
Its Activity is “Toxic”.

And the Activity [3]?
Its Activity is “Toxic”.

`O=C1NC2(CCC(NS(=O)(=O)c3ccccc3F)CC2)C(=O)N1CCOc1ccc(F)cc1` (stereo not given) was tested. Which Activity [1] did it give?
Its Activity is 4.94%.

What about the Activity [2] of the same molecule?
Its Activity is “Non-toxic”.

And the Activity [3]?
Its Activity is “Non-toxic”.

Which Activity [1] does the source give for `Cc1ccc(CS(=O)(=O)NC2CCC3(CC2)NC(=O)N(CCOc2ccc(F)cc2)C3=O)cc1` (stereo not given) here?
The Activity was 12.6%.

What about the Activity [2] of the same molecule?
Its Activity is “Toxic”.

What about the Activity [3] of the same molecule?
The Activity was “Toxic”.

How did the Activity [1] turn out when `CC(C)(C)c1ccc(C(=O)NC2CCC3(CC2)NC(=O)N(CCOc2ccc(F)cc2)C3=O)cc1` (stereo not given) was run?
The Activity was 48.15%.

And the Activity [2]?
Its Activity is “Non-toxic”.

What about the Activity [3] of the same molecule?
Its Activity is “Non-toxic”.

For `N#Cc1ccccc1S(=O)(=O)NC1CCC2(CC1)NC(=O)N(CCOc1ccc(F)cc1)C2=O` (stereo not given), which Activity [1] is on record?
The Activity was 4.51%.

And the Activity [2]?
Its Activity is “Non-toxic”.

And the Activity [3]?
The Activity was “Non-toxic”.

Which results are given for `COc1ccc(S(=O)(=O)NC2CCC3(CC2)NC(=O)N(CCOc2ccc(F)cc2)C3=O)cc1` (stereo not given)?
Activity [1]: 9.23%; Activity [2]: Non-toxic; Activity [3]: Non-toxic

Which Activity [1] does the source give for `O=C(NC1CCC2(CC1)NC(=O)N(CCOc1ccc(F)cc1)C2=O)c1ccccc1` (stereo not given) here?
The Activity was 55.78%.

And the Activity [2]?
The Activity was “Non-toxic”.

And the Activity [3]?
The Activity was “Non-toxic”.

What does the source list for `O=C(NC1CCC2(CC1)NC(=O)N(CCOc1ccc(F)cc1)C2=O)c1ccccc1C(F)(F)F` (stereo not given)?
Activity [1]: 79.32%; Activity [2]: Non-toxic; Activity [3]: Non-toxic

With `Cc1ccc(S(=O)(=O)NC2CCC3(CC2)NC(=O)N(CCOc2ccc(F)cc2)C3=O)cc1` (stereo not given) as the molecule, how does the Activity [1] read?
Its Activity is 1.14%.

And the Activity [2]?
Its Activity is “Non-toxic”.

What about the Activity [3] of the same molecule?
The Activity was “Non-toxic”.

With `O=C(NC1CCC2(CC1)NC(=O)N(CCOc1ccc(F)cc1)C2=O)Oc1ccc(Cl)cc1` (stereo not given) as the molecule, how does the Activity [1] read?
The Activity was 59.29%.

And the Activity [2]?
The Activity was “Non-toxic”.

What about the Activity [3] of the same molecule?
Its Activity is “Non-toxic”.

`O=C(NC1CCC2(CC1)NC(=O)N(CCOc1ccc(F)cc1)C2=O)c1cccc(F)c1` (stereo not given) was tested. Which Activity [1] did it give?
The Activity was 58.02%.

And the Activity [2]?
The Activity was “Toxic”.

What about the Activity [3] of the same molecule?
Its Activity is “Toxic”.
